Experimental data from patent US20140357512A1, “HISTONE DEACETYLASE (HDAC) BIOMARKERS IN MULTIPLE MYELOMA” (priority 2013, published 2014).

Test system: human myeloma cell line MM.1S
Test: SILAC acetylated-lysine peptide profiling, HDAC inhibitor vs DMSO (light/heavy ratio)
Format: cell-based
Source text: An embodiment of the invention comprises utilizing the SILAC method in order to quantitate changes in protein expression between two or more populations of cells. The SILAC method is a technique based on mass spectrometry that detects differences in protein abundance among samples using non-radioactive isotopic labeling. The SILAC method is known in the art, and described in detail in Ong et al., “Stable Isotope Labeling by Amino Acids in Cell Culture, SILAC, as a Simple and Accurate Approach to Expression Proteomics”, Molecular & Cellular Proteomics, vol. 1, pp. 376-386 (2002), which is incorporated herein by reference in its entirety.
Briefly, the SILAC method involves growing two populations of cells in cell culture. The first population of cells is grown in growth media containing normal amino acids (“normal media”). The second population of cells is grown in media lacking a standard essential amino acid (such as lysine), but is then supplemented with a non-radioactive, isotopically labeled form of that essential amino acid (such as lysine labeled with ^13C atoms, rather than normal ^12C atoms), which is called “heavy media”. When the two populations of cells are each growing in the medium, they incorporate the amino acids into all of their proteins. The growth of cells maintained in the heavy media is no different from that in normal media. All peptides containing the heavy amino acids are heavier than their normal counterparts. The cells from each of the two populations of cells are lysed. The lysates from each of the two cell populations are then combined. The combined cell lysates are then analyzed by mass spectrometry. Pairs of chemically identical peptides of different stable isotope composition can be differentiated in a mass spectrometer due to their difference in mass. The ratio of peak intensities in the mass spectrum for such peptide pairs reflects the abundance ratio for the two proteins.
This example describes SILAC studies that were performed to compare the effects of three different HDAC inhibitors (Compound A, Compound B, and tubastatin A) to a control on a human multiple myeloma cell line. The HDAC inhibitors were also compared amongst themselves to determine differences in their effects.
A human myeloma cell line MM.1S was grown using either ^12C (light) or ^13C (heavy) lysine containing culture medium. The “heavy” cells were treated with DMSO as the control, and the “light” cells were treated with a single HDAC inhibitor at 37° C. for 6 hours. The heavy and light cells were lysed, and the lysates were mixed in 1:1 ratio and digested with the protease trypsin. The acetylated lysine containing peptides (due to the action of the HDAC inhibitor) in the digested peptide pool were captured by a non-specific anti-acetylated lysine antibody cocktail (the antibodies identify both light and heavy acetylated peptides), and subjected to mass spectrometry analysis in order to identify thousands of individual peptides.
Thousands of peptides were identified in pairs (^12C and ^13C) due to their known mass differences. The amino acid sequence and quantitative ratio (Light/Heavy) of a given peptide in two differentially treated cell lysates were then determined and annotated with their possible protein (gene) sources.
As stated above, three HDAC inhibitors (Compound A, Compound B, and Tubastatin A) were used. Thus, the SILAC method was performed three times, with a different HDAC inhibitor compared to a control each time. Accordingly, there are three pairs of quantitative data in the table below, i.e., Compound A:DMSO, Compound B:DMSO, and Tubastatin A:DMSO. A cut-off of 1.30 fold of change (increase or decrease) was then used to determine “changed” or “+” in the table, and any peptides with a fold of change less than 1.3 fold were determined to be “unchanged” or “0” in the table. Those peptides that were not identified were marked as “NA” in the table. […]

## O=C(CCCCCCNC(=O)c1cnc(N(c2ccccc2)c2ccccc2)nc1)NO [Compound A, 2-(diphenylamino)-N-(7-(hydroxyamino)-7-oxoheptyl)pyrimidine-5-carboxamide]
60S ribosomal protein L35a [15], RPL35A, drug:DMSO
  light to heavy ratio (L/H ratio) of acetylated peptide AIFAGYK(ac)R (SEQ ID NO: 300): 0.86 log 2
60S ribosomal protein L37a [36], RPL37A, drug:DMSO
  light to heavy ratio (L/H ratio) of acetylated peptide KIEISQHAK(ac)YTCSFCGK (SEQ ID NO: 351): 0.00 log 2
60 kDa heat shock protein mitochondrial [87], gene HSPD1, inhibitor:DMSO
  light to heavy ratio (L/H ratio) of acetylated peptide SIDLK(ac)DK (SEQ ID NO: 572): 0.42 log 2
78 kDa glucose-regulated protein [268], HSPA5, drug:DMSO
  light to heavy ratio (L/H ratio) of acetylated peptide VMEHFIK(ac)LYK (SEQ ID NO: 276): 0.54 log 2
78 kDa glucose-regulated protein [326], HSPA5, drug:DMSO
  light to heavy ratio (L/H ratio) of acetylated peptide AK(ac)[…] (SEQ ID NO: 266): 0.44 log 2
116 kDa U5 small nuclear ribonucleoprotein component [790], EFTUD2, drug:DMSO
  light to heavy ratio (L/H ratio) of acetylated peptide FK(ac)[…] (SEQ ID NO: 333): 0.00 log 2
ACADVL [428], log 2 scale, drug vs DMSO
  L/H ratio of acetylated peptide […](ac)LAR (SEQ ID NO: 19): 0.00
ACTN1 [398], log 2 scale, drug vs DMSO
  L/H ratio of acetylated peptide LDHLAEK(ac)FR (SEQ ID NO: 20): 0.00
ADP-ribosylation factor-like protein 6-interacting protein 1 [96], ARL6IP1, drug:DMSO
  light to heavy ratio (L/H ratio) of acetylated peptide IFGSNK(ac)WTTEQQQR (SEQ ID NO: 306): 1.00 log 2
ADP-ribosylation factor-like protein 11 [31], gene ARL11, inhibitor:DMSO
  light to heavy ratio (L/H ratio) of acetylated peptide TTLLYK(ac)LK (SEQ ID NO: 624): 0.49 log 2
ADP/ATP translocase 1 [166], SLC25A4, drug:DMSO
  light to heavy ratio (L/H ratio) of acetylated peptide IFK(ac)SDGLR (SEQ ID NO: 280): 0.56 log 2
ADP/ATP translocase 3 [166], gene SLC25A6, inhibitor:DMSO
  light to heavy ratio (L/H ratio) of acetylated peptide ITK(ac)SDGIR (SEQ ID NO: 587): 0.44 log 2
AK(ac)HDELTYF (SEQ ID NO: 497), Cystatin-B [91], CSTB
  L/H ratio of acetylated peptide: −0.88 log 2
ALDLNLK(ac)HQILPK (SEQ ID NO: 248), Cytochrome b-c1 complex subunit 7 [72], UQCRB
  light to heavy ratio (L/H ratio) of acetylated peptide, log 2 scale: −0.50
ANP32B [101], log 2 scale, drug vs DMSO
  L/H ratio of acetylated peptide LK(ac)[…] (SEQ ID NO: 21): 0.00
ANXA6 [63], log 2 scale, drug vs DMSO
  L/H ratio of acetylated peptide […](ac)SLYGK (SEQ ID NO: 22): 0.00
ATAD3A [491], log 2 scale, drug vs DMSO
  L/H ratio of acetylated peptide MYFDK(ac)[…] (SEQ ID NO: 23): 0.00
ATP5H [117], log 2 scale, drug vs DMSO
  L/H ratio of acetylated peptide IVEYEK(ac)EMEK (SEQ ID NO: 24): 0.00
ATP5J2 [54], log 2 scale, drug vs DMSO
  L/H ratio of acetylated peptide YYNK(ac)YINVK (SEQ ID NO: 12): 0.54
ATP synthase subunit O mitochondrial [54], ATP50, drug:DMSO
  light to heavy ratio (L/H ratio) of acetylated peptide QNK(ac)LEQVEK (SEQ ID NO: 271): 0.46 log 2
ATP synthase subunit alpha mitochondrial [261], gene ATP5A1, inhibitor:DMSO
  light to heavy ratio (L/H ratio) of acetylated peptide STVAQLVK(ac)R (SEQ ID NO: 552): 0.39 log 2
ATP synthase subunit alpha mitochondrial [539], gene ATP5A1, inhibitor:DMSO
  light to heavy ratio (L/H ratio) of acetylated peptide ISEQSDAK(ac)LK (SEQ ID NO: 600): 0.46 log 2
ATP synthase subunit b mitochondrial [233], ATP5F1, drug:DMSO
  light to heavy ratio (L/H ratio) of acetylated peptide […](ac)ETIAK (SEQ ID NO: 307): 1.00 log 2
ATP synthase subunit beta mitochondrial [485], gene ATP5B, inhibitor:DMSO
  light to heavy ratio (L/H ratio) of acetylated peptide LVPLK(ac)ETIK (SEQ ID NO: 507): −0.64 log 2
ATP synthase subunit g mitochondrial [66], ATP5L, drug:DMSO
  light to heavy ratio (L/H ratio) of acetylated peptide […](ac)QLTVK (SEQ ID NO: 279): 0.56 log 2
ATP synthase-coupling factor 6 mitochondrial [99], ATP5J, drug:DMSO
  light to heavy ratio (L/H ratio) of acetylated peptide FEDPK(ac)FEVIEKPQA (SEQ ID NO: 325): 0.00 log 2
ATP-dependent RNA helicase DDX18 [584], gene DDX18, inhibitor:DMSO
  light to heavy ratio (L/H ratio) of acetylated peptide SAQEAYK(ac)SYIR (SEQ ID NO: 502): −0.74 log 2
Actin aortic smooth muscle [317], gene ACTA2, inhibitor:DMSO
  light to heavy ratio (L/H ratio) of acetylated peptide MQK(ac)[…] (SEQ ID NO: 526): −0.44 log 2
Acyl-CoA dehydrogenase family member 9 mitochondrial [41], gene ACAD9, inhibitor:DMSO
  light to heavy ratio (L/H ratio) of acetylated peptide AFAK(ac)ELFLGK (SEQ ID NO: 627): 0.49 log 2
Alpha-soluble NSF attachment protein [203], NAPA, drug:DMSO
  light to heavy ratio (L/H ratio) of acetylated peptide YSAK(ac)DYFFK (SEQ ID NO: 319): 1.00 log 2
Annexin A5 [76], gene ANXA5, drug:DMSO
  light to heavy ratio (L/H ratio), log 2 scale, acetylated peptide SELTGK(ac)FEK (SEQ ID NO: 778): 1.00
Annexin A6 [9], ANXA6, drug:DMSO
  light to heavy ratio (L/H ratio) of acetylated peptide PAQGAK(ac)YR (SEQ ID NO: 305): 1.00 log 2
Annexin A6 [299], ANXA6, drug:DMSO
  light to heavy ratio (L/H ratio) of acetylated peptide TKYEK(ac)SLYSMIK (SEQ ID NO: 270): 0.46 log 2
Annexin A6 [314], ANXA6, drug:DMSO
  light to heavy ratio (L/H ratio) of acetylated peptide NDTSGEYK(ac)K (SEQ ID NO: 285): 0.61 log 2
Annexin A6 [478], ANXA6, drug:DMSO
  light to heavy ratio (L/H ratio) of acetylated peptide AINEAYK(ac)EDYHK (SEQ ID NO: 282): 0.59 log 2
Annexin A6 [607], ANXA6, drug:DMSO
  light to heavy ratio (L/H ratio) of acetylated peptide NKPLFFADK(ac)LYK (SEQ ID NO: 298): 0.78 log 2
